Laboratory results taken from patent US6492373B2, “6-fluoro-1,4-dihydro-7-[4-(2-hydroxyiminoethyl)-1-piperazinyl]-4-oxoquinoline-3-carboxylic acid derivatives, their preparation and pharmaceutical compositions” (Pharmaceutical Industry Technology and Development Center, priority 2000, dated 2002).
Values after ≈ are worked out from the molar mass of the structure shown.

Assays:
[1] = test system: Staphylococcus aureus, Methicillin Resistant (MRSA); assay: In vitro antibacterial activity, MIC by broth dilution; type: cell-based; details: for MIC: Staphylococcus aureus, MRSA, 20-72 hours at 37° C., Mueller-Hinton broth
[2] = test system: Escherichia coli; assay: as above; type: cell-based; details: for MIC: Escherichia coli, 20-72 hours at 37° C., Nutrient Broth
[3] = test system: Mycobacterium ranae; assay: as above; type: cell-based; details: for MIC: Mycobacterium, 20-72 hours at 37° C., Brain Heart Infusion broth
[4] = test system: Pseudomonas aeruginosa; assay: as above; type: cell-based; details: for MIC: Pseudomonas aeruginosa, 20-72 hours at 37° C., Nutrient Broth
[5] = test system: Klebsiella pneumoniae; assay: as above; type: cell-based
[6] = test system: Proteus vulgaris; assay: as above; type: cell-based; details: for MIC: Proteus vulgaris, 20-72 hours at 37° C., Mueller-Hinton broth
[7] = test system: Staphylococcus pneumoniae, Erythromycin and Ampicillin resistant, clinical isolates; assay: as above; type: cell-based; details: for MIC: Staphylococcus, 20-72 hours at 37° C., Tryptic Soy Broth with 7% calf serum
[8] = test system: Enterococcus faecalis, Vancomycin resistant, clinical isolates; assay: as above; type: cell-based; details: for MIC: Enterococcus faecalis, 20-72 hours at 37° C., Tryptic Soy Broth with 7% calf serum
[9] = test system: CCRF-CEM (leukemia); assay: NCI in vitro tumor cell growth inhibition (GI50); type: cell-based; details: Homo sapiens
[10] = test system: HL-60 (TB) (leukemia); assay: NCI in vitro tumor cell growth inhibition (GI50); type: cell-based; details: Homo sapiens
[11] = test system: RPMI-8226 (leukemia); assay: NCI in vitro tumor cell growth inhibition (GI50); type: cell-based; details: Homo sapiens
[12] = test system: EKVX (non-small cell lung cancer); assay: NCI in vitro tumor cell growth inhibition (GI50); type: cell-based; details: Homo sapiens
[13] = test system: HOP-62 (non-small cell lung cancer); assay: NCI in vitro tumor cell growth inhibition (GI50); type: cell-based; details: Homo sapiens
[14] = test system: NCI-H226 (non-small cell lung cancer); assay: NCI in vitro tumor cell growth inhibition (GI50); type: cell-based; details: Homo sapiens
[15] = test system: SK-OV-3 (ovarian cancer); assay: NCI in vitro tumor cell growth inhibition (GI50); type: cell-based; details: Homo sapiens
[16] = test system: SK-OV-4 (ovarian cancer); assay: NCI in vitro tumor cell growth inhibition (GI50); type: cell-based; details: Homo sapiens
[17] = test system: SK-OV-5 (ovarian cancer); assay: NCI in vitro tumor cell growth inhibition (GI50); type: cell-based; details: Homo sapiens
[18] = test system: CAKI-1 (renal cancer); assay: NCI in vitro tumor cell growth inhibition (GI50); type: cell-based; details: Homo sapiens
[19] = test system: RXF-393 (renal cancer); assay: NCI in vitro tumor cell growth inhibition (GI50); type: cell-based; details: Homo sapiens
[20] = test system: UO-31 (renal cancer); assay: NCI in vitro tumor cell growth inhibition (GI50); type: cell-based; details: Homo sapiens
[21] = test system: 60 human tumor cell lines; assay: NCI in vitro tumor cell growth inhibition, whole panel; type: cell-based; details: for GI50: Homo sapiens, Mean values over 60 cell lines tested; for Range: Ratio of GI50 value for the least sensitive cell to the most sensitive cell
[22] = 20-72 hours at 37° C., Nutrient Broth
[23] = Gentamicin, footnote b: MIC in μg/ml

Molecule	MIC [1]	MIC [2]	MIC [3]	MIC [4]	MIC, Kp [5, 22]	MIC [6]	MIC [7]	MIC [8]	melting point	also measured
COc1ccc(C(CN2CCN(c3cc4c(cc3F)c(=O)c(C(=O)O)cn4-c3ccc([N+](=O)[O-])cc3F)CC2)=NO)cc1 [Exp. 8, 1-(4-Nitro-2-fluorophenyl)-6-fluoro-7-{4-[2-hydroxyimino-2-(4-methoxyphenyl)ethyl]-1-piperazinyl}-4-oxo-1,4-dihydroquinoline-3-carboxylic acid]	0.34 µM (≈ 0.202 µg/mL)	1.32 µM (≈ 0.783 µg/mL)	21.1 µM (≈ 12.5 µg/mL)	42.2 µM (≈ 25 µg/mL)	0.08 µM	> 169 µM	1.32 µM (≈ 0.783 µg/mL)	5.28 µM (≈ 3.13 µg/mL)	–	–
COc1ccc(C(=O)CN2CCN(c3cc4c(cc3F)c(=O)c(C(=O)O)cn4-c3ccc(N)cc3F)CC2)cc1 [Exp. 12, 1-(4-amino-2-fluorophenyl)-6-fluoro-7-{4-[2-(4-methoxy-phenyl)-2-oxoethyl]-1-piperazinyl}-4-oxo-1,4-dihydroquinoline-3-carboxylic acid]	0.55 µM (≈ 0.302 µg/mL)	0.55 µM (≈ 0.302 µg/mL)	18.2 µM (≈ 9.98 µg/mL)	5.74 µM (≈ 3.15 µg/mL)	0.05 µM	18.2 µM (≈ 9.98 µg/mL)	1.82 µM (≈ 0.998 µg/mL)	5.47 µM (≈ 3 µg/mL)	143 °C (dec.)	–
CCn1cc(C(=O)O)c(=O)c2cc(F)c(N3CCN(CC(=NO)c4ccccc4)CC3)cc21 [Exp. 3, 1-Ethyl-6-fluoro-4-oxo-7-[4-(2-hydroxyimino-2-phenylethyl)-1-piperazinyl]-1,4-dihydroquinoline-3-carboxylic acid]	0.44 µM (≈ 0.199 µg/mL)	0.86 µM (≈ 0.389 µg/mL)	55.3 µM (≈ 25 µg/mL)	13.8 µM (≈ 6.24 µg/mL)	0.22 µM	3.45 µM (≈ 1.56 µg/mL)	–	–	203 °C (dec.)	–
CCn1cc(C(=O)O)c(=O)c2cc(F)c(N3CCN(CC(C)NN)CC3)cc21 (stereo not shown) [Exp. 1, 1-Ethyl-6-fluoro-7-[4-(2-hydrazinopropyl)-1-piperazinyl]-4-oxo-1,4-dihydroquinoline-3-carboxylic acid]	4.01 µM (≈ 1.57 µg/mL)	2.01 µM (≈ 0.787 µg/mL)	16.1 µM (≈ 6.3 µg/mL)	16.1 µM (≈ 6.3 µg/mL)	0.064 µM	2.01 µM (≈ 0.787 µg/mL)	32.1 µM (≈ 12.6 µg/mL)	16.1 µM (≈ 6.3 µg/mL)	208 °C (dec.)	–
CCn1cc(C(=O)O)c(=O)c2cc(F)c(N3CCN(CC(=NO)c4ccc(Cl)cc4)CC3)cc21 [Exp. 10, 1-Ethyl-6-fluoro-7-{4-[2-(4-chlorophenyl)-2-hydroxyimino-ethyl]-1-piperazinyl}-4-oxo-1,4-dihydro-3-quinolinecarboxylic acid]	–	–	–	–	–	–	–	–	–	GI50 [9]: 67.4 µM; GI50 [10]: 1.29 µM; GI50 [11]: 3.21 µM; GI50 [12]: 19.2 µM; GI50 [13]: 28.6 µM; GI50 [14]: 20.3 µM; GI50 [15]: 28.7 µM; GI50 [16]: 32.1 µM; GI50 [17]: 22.8 µM; GI50 [18]: 0.4 µM; GI50 [19]: 0.72 µM; GI50 [20]: 0.03 µM; GI50 [21]: 9.31 µM; Range [21]: 2291
CCn1cc(C(=O)O)c(=O)c2cc(F)c(N3CCN(CC(=NO)c4ccc(OC)cc4)CC3)cc21 [Exp. 5, 1-Ethyl-6-fluoro-7-{4-[2-hydroxyimino-2-(4-methoxyphenyl)-ethyl]-1-piperazinyl}-4-oxo-1,4-dihydroquinoline-3-carboxylic acid]	0.41 µM (≈ 0.198 µg/mL)	1.62 µM (≈ 0.782 µg/mL)	104 µM (≈ 50.2 µg/mL)	25.9 µM (≈ 12.5 µg/mL)	0.027 µM	3.24 µM (≈ 1.56 µg/mL)	13 µM (≈ 6.26 µg/mL)	3.24 µM (≈ 1.56 µg/mL)	221 °C (dec.)	GI50 [9]: 24.4 µM; GI50 [10]: 17.7 µM; GI50 [11]: 38.4 µM; GI50 [12]: 46.8 µM; GI50 [13]: 52.3 µM; GI50 [14]: 93.3 µM; GI50 [15]: 37.2 µM; GI50 [16]: 55.1 µM; GI50 [17]: > 100 µM; GI50 [18]: 6.91 µM; GI50 [20]: 0.55 µM; GI50 [21]: 31.8 µM; Range [21]: 182
CC1COc2c(N3CCN(C)CC3)c(F)cc3c(=O)c(C(=O)O)cn1c23 (stereo not shown) [Ofloxacin, reference compound]	1.08 µM (≈ 0.39 µg/mL)	0.28 µM (≈ 0.101 µg/mL)	1.08 µM (≈ 0.39 µg/mL)	2.16 µM (≈ 0.781 µg/mL)	0.036 µM	0.069 µM (≈ 0.0249 µg/mL)	4.32 µM (≈ 1.56 µg/mL)	4.32 µM (≈ 1.56 µg/mL)	–	–
CCn1cc(C(=O)O)c(=O)c2cc(F)c(N3CCN(CC(C)=NO)CC3)cc21 [Exp. 2, 1-Ethyl-6-fluoro-7-[4-(2-hydroxyiminopropyl)-1-piperazinyl]-4-oxo-1,4-dihydroquinoline-3-carboxylic acid]	0.51 µM (≈ 0.199 µg/mL)	0.51 µM (≈ 0.199 µg/mL)	32.1 µM (≈ 12.5 µg/mL)	16 µM (≈ 6.25 µg/mL)	0.13 µM	2 µM (≈ 0.781 µg/mL)	–	–	218 °C (dec.)	–
CCn1cc(C(=O)O)c(=O)c2cc(F)c(N3CCNCC3)cc21 [Norfloxacin, reference compound]	4.89 µM (≈ 1.56 µg/mL)	0.63 µM (≈ 0.201 µg/mL)	9.81 µM (≈ 3.13 µg/mL)	1.22 µM (≈ 0.39 µg/mL)	0.041 µM	0.16 µM (≈ 0.0511 µg/mL)	19.6 µM (≈ 6.26 µg/mL)	9.81 µM (≈ 3.13 µg/mL)	–	–
CCn1cc(C(=O)O)c(=O)c2cc(F)c(N3CCN(CC(=O)c4ccccc4)CC3)c(F)c21 [Exp. 4, 1-Ethyl-6,8-difluoro-1,4-dihydro-4-oxo-7-(4-phenacyl-1-piperazinyl)-quinoline-3-carboxylic acid]	1.71 µM (≈ 0.779 µg/mL)	0.22 µM (≈ 0.1 µg/mL)	3.43 µM (≈ 1.56 µg/mL)	0.86 µM (≈ 0.392 µg/mL)	0.055 µM	0.22 µM (≈ 0.1 µg/mL)	13.7 µM (≈ 6.24 µg/mL)	13.7 µM (≈ 6.24 µg/mL)	167 °C (dec.)	–
CCn1cc(C(=O)O)c(=O)c2cc(F)c(N3CCN(CC(=NO)c4ccc(OC)cc4)CC3)c(F)c21 [Exp. 6, 1-Ethyl-6,8-difluoro-7-{4-[2-hydroxyimino-2-(4-methoxy-phenyl)ethyl]-1-piperazinyl}-4-oxo-1,4-dihydroquinoline-3-carboxylic acid]	0.2 µM (≈ 0.1 µg/mL)	0.4 µM (≈ 0.2 µg/mL)	6.34 µM (≈ 3.17 µg/mL)	3.16 µM (≈ 1.58 µg/mL)	0.10 µM	0.4 µM (≈ 0.2 µg/mL)	6.34 µM (≈ 3.17 µg/mL)	3.16 µM (≈ 1.58 µg/mL)	176 °C (dec.)	–
CCn1cc(C(=O)O)c(=O)c2cc(F)c(N3CCN(C(=N)C(O)c4ccc(F)cc4)CC3)c(F)c21 (stereo not shown) [Exp. 11, 1-Ethyl-6,8-difluoro-7-{4-[2-(4-fluorophenyl)-2-hydroxy-iminoethyl]-1-piperazinyl}-4-oxo-1,4-dihydro-3-quinolinecarboxylic acid]	–	–	–	–	–	–	–	–	201 °C (dec.)	–
Gentamicin [reference compound]	–	–	–	–	–	–	–	–	–	MIC, MRSA [1, 23]: 0.78 µg/mL; MIC, Ec [2, 23]: 0.20 µg/mL; MIC, Mr [3, 23]: 0.20 µg/mL; MIC, Pa [4, 23]: 0.39 µg/mL; MIC, Kp [5, 23]: 0.2 µg/mL; MIC, Pv [6, 23]: 0.1 µg/mL; MIC, SpEAR [7, 23]: 100 µg/mL; MIC, EfVRE [8, 23]: 50 µg/mL
CCn1cc(C(=O)O)c(=O)c2cc(F)c(N3CCN(CC(=NO)c4ccc(F)cc4)CC3)cc21 [Exp. 9, 1-Ethyl-6-fluoro-7-{4-[2-(4-fluorophenyl)-2-hydroxyimino-ethyl]-1-piperazinyl}-4-oxo-1,4-dihydro-3-quinolinecarboxylic acid]	–	–	–	–	–	–	–	–	–	GI50 [9]: 10.5 µM; GI50 [10]: 0.98 µM; GI50 [11]: 22.9 µM; GI50 [12]: 42.6 µM; GI50 [13]: 42.6 µM; GI50 [14]: 53.5 µM; GI50 [15]: 32 µM; GI50 [16]: 39.4 µM; GI50 [17]: > 100 µM; GI50 [18]: 1.89 µM; GI50 [19]: 0.17 µM; GI50 [20]: 0.13 µM; GI50 [21]: 21.5 µM; Range [21]: 758
CCn1cc(C(=O)O)c(=O)c2cc(F)c(N3CCN(CC(=NOC)c4ccc(OC)cc4)CC3)cc21 [Exp. 7, 1-Ethyl-6-fluoro-7-{4-[2-methoxyimino-2-(4-methoxyphenyl)-ethyl]-1-piperazinyl}-4-oxo-1,4-dihydroquinoline-3-carboxylic acid]	1.57 µM (≈ 0.78 µg/mL)	6.31 µM (≈ 3.13 µg/mL)	202 µM (≈ 100 µg/mL)	202 µM (≈ 100 µg/mL)	1.57 µM	6.31 µM (≈ 3.13 µg/mL)	12.6 µM (≈ 6.26 µg/mL)	12.6 µM (≈ 6.26 µg/mL)	165 °C (dec.)	–
